The source made the active and inactive calls. The rule behind the calls is not given here.
Legend:
[1] = molecular target: T1, Alkaline phosphatase, tissue-nonspecific isozyme (Homo sapiens, UniProt P05186); experiment: Inhibition of FLAG-tagged TNAP (unknown origin) expressed in African green monkey COS1 cells after 30 mins by chemiluminescence assay; assay type: cell-based, COS-1
T1 sequence (P05186 whole entry): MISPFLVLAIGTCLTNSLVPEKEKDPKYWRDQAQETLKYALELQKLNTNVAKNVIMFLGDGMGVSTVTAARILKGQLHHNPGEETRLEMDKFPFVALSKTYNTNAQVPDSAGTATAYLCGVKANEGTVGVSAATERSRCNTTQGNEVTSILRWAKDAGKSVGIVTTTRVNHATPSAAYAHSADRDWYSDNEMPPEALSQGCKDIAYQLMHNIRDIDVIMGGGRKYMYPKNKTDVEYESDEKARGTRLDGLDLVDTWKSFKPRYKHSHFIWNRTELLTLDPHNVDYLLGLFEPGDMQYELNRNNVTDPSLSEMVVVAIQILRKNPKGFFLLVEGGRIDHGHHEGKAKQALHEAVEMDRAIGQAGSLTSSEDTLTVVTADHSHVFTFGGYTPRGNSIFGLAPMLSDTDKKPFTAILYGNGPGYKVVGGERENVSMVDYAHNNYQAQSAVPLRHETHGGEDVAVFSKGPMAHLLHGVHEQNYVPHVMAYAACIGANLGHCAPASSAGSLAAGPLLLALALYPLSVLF

[2] = molecular target: T2, Intestinal-type alkaline phosphatase (Mus musculus, UniProt P24822); experiment: Inhibition of mouse duodenal-specific FLAG-tagged IAP expressed in African green monkey COS1 cells after 30 mins by chemiluminescence assay; assay type: cell-based, COS-1
[3] = molecular target: Alkaline phosphatase, placental type (Homo sapiens, UniProt P05187); experiment: Inhibition of FLAG-tagged PLAP (unknown origin) expressed in African green monkey COS1 cells after 30 mins by chemiluminescence assay; assay type: cell-based, COS-1
[4] = molecular target: T3, Intestinal-type alkaline phosphatase (Homo sapiens, UniProt P09923); experiment: Inhibition of human FLAG-tagged IAP expressed in African green monkey COS1 cells after 30 mins by chemiluminescence assay; assay type: cell-based, COS-1
[5] = molecular target: T4, Alkaline phosphatase, germ cell type (Mus musculus, UniProt P24823); experiment: Inhibition of mouse EAP using p-nitrophenyl phosphate as substrate after 30 mins by chemiluminescence assay
T4 sequence (P24823 whole entry): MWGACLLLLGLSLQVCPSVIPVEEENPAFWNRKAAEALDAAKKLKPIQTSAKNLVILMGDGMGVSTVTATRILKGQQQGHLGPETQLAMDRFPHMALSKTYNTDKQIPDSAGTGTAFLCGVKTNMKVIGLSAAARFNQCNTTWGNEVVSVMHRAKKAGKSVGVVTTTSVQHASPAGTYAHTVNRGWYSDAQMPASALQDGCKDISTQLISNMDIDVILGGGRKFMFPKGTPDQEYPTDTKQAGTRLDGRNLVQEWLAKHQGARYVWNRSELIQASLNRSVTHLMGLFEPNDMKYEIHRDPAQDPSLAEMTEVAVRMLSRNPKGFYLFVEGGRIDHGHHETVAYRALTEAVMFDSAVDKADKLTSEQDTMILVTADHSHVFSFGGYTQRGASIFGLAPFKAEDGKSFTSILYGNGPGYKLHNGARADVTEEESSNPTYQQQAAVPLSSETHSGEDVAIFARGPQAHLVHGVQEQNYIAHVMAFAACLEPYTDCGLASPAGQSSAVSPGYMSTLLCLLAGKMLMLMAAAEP

[6] = molecular target: T2, Intestinal-type alkaline phosphatase; experiment: Competitive inhibition of mouse duodenal-specific FLAG-tagged IAP expressed in African green monkey COS1 cells using p-nitrophenyl phosphate as substrate by double reciprocal plot analysis; assay type: cell-based, COS-1; details: read-out: Ki(app)
[7] = molecular target: Intestinal-type alkaline phosphatase (Mus musculus) (UniProt P24822); details: CHO-K1, 10 uM
Description: Inhibition of mouse duodenal-specific IAP expressed in CHOK1 cells at 10 uM by ELF97 staining-based phase contrast microscopic analysis

[8] = molecular target: T2, Intestinal-type alkaline phosphatase; experiment: Inhibition of mouse duodenal-specific FLAG-tagged IAP expressed in African green monkey COS1 cells using p-nitrophenyl phosphate as substrate after 30 mins by chemiluminescence assay
[9] = Inhibition of mouse gIAP using p-nitrophenyl phosphate as substrate after 30 mins by chemiluminescence assay
[10] = molecular target: T3, Intestinal-type alkaline phosphatase; experiment: Inhibition of human FLAG-tagged IAP expressed in African green monkey COS1 cells using p-nitrophenyl phosphate as substrate after 30 mins by chemiluminescence assay; assay type: cell-based, COS-1

T2 sequence (P24822 whole entry): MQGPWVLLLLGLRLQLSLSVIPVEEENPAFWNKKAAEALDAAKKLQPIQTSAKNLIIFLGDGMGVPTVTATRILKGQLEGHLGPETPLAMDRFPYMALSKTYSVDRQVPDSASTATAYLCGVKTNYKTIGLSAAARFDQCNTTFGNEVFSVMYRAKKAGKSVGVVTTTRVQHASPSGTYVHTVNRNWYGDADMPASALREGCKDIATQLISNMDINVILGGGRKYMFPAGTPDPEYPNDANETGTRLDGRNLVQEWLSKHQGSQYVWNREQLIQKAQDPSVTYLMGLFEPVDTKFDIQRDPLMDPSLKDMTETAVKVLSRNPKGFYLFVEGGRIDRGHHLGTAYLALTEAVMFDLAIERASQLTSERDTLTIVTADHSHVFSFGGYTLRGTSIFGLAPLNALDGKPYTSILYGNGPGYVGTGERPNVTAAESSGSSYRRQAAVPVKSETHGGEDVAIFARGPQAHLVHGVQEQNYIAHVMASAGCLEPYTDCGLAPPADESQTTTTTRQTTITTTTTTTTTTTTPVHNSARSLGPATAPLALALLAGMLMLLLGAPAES
Alkaline phosphatase, placental type, sequence (P05187 whole entry): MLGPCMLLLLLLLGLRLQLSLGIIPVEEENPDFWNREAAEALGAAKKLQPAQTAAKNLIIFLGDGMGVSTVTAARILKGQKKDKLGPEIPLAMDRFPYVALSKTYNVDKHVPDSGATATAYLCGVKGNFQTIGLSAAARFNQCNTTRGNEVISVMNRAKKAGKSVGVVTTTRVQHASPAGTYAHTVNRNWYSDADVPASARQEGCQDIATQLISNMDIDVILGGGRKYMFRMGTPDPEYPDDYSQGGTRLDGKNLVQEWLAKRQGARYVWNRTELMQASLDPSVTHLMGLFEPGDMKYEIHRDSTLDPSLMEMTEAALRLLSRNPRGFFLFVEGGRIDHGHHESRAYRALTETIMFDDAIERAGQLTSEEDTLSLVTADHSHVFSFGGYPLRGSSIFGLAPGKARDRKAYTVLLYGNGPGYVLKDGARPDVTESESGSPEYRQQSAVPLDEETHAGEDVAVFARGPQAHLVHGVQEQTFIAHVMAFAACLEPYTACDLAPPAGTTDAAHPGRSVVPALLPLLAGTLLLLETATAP
T3 sequence (P09923 whole entry): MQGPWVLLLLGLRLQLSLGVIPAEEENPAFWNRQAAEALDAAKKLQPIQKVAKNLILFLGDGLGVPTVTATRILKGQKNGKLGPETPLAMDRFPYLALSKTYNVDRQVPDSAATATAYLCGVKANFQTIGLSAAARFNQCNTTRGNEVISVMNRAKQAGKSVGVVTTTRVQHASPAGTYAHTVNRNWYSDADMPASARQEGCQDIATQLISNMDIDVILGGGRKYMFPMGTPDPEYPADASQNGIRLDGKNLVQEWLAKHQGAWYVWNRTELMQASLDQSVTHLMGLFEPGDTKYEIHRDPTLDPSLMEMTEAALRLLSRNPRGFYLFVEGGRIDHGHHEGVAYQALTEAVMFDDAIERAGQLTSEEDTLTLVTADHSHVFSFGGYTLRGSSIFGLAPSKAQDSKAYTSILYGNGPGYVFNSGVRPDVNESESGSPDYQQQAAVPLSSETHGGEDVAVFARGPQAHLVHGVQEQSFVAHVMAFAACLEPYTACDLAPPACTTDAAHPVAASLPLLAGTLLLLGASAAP
Intestinal-type alkaline phosphatase (Mus musculus), sequence (P24822 whole entry): as the sequence (P24822 whole entry) above

Compound | IC50 [1] [µM] | IC50 [2] [µM] | IC50 [3] [µM] | also measured
O=C(CCNS(=O)(=O)c1ccc2[nH]c(=O)oc2c1)Nc1ccc2c(c1)OCO2 | > 100 | 12 | > 100 | –
O=C(NCCc1ccc2c(c1)OCO2)NS(=O)(=O)c1ccc2[nH]c(=O)oc2c1 | > 100 | > 100 | > 100 | –
O=C(CCNS(=O)(=O)c1ccc2[nH]c(=O)oc2c1)NCCCc1ccc2c(c1)OCO2 | > 100 | 44 | > 100 | –
N#Cc1cccc(NC(=O)NS(=O)(=O)c2ccc3[nH]c(=O)oc3c2)c1 | > 100 | > 100 | > 100 | –
COc1ccc(NC(=O)NS(=O)(=O)c2ccc3[nH]c(=O)oc3c2)cc1OC | > 100 | > 100 | > 100 | –
Cc1ccc(C)c(NC(=O)NS(=O)(=O)c2ccc3[nH]c(=O)oc3c2)c1 | > 100 | > 100 | > 100 | –
O=C(CCNS(=O)(=O)c1ccc2[nH]c(=O)oc2c1)NCc1ccc2c(c1)OCO2 | > 100 | 2.6 | > 100 | –
COc1ccc(CNC(=O)NS(=O)(=O)c2ccc3[nH]c(=O)oc3c2)c(OC)c1 | > 100 | 89 | > 100 | –
N#Cc1ccc(NC(=O)NS(=O)(=O)c2ccc3[nH]c(=O)oc3c2)cc1 | > 100 | > 100 | > 100 | –

Second part, led by results:

IC50 [1] [µM] | IC50 [2] [µM] | IC50 [3] [µM] | Compound | also measured
> 100 | > 100 | > 100 | O=C(Nc1ccc2c(c1)OCO2)NS(=O)(=O)c1ccc2[nH]c(=O)oc2c1 | –
> 100 | 45 | > 100 | O=C(CCCNS(=O)(=O)c1ccc2[nH]c(=O)oc2c1)NCc1ccc2c(c1)OCO2 | –
> 100 | 1.82 | > 100 | N#Cc1cccc(NC(=O)CCNS(=O)(=O)c2ccc3nc(O)oc3c2)c1 | IC50 [4]: > 100 µM
> 100 | 19 | > 100 | O=C(CCNS(=O)(=O)c1ccc2[nH]c(=O)oc2c1)NCCc1ccc2c(c1)OCO2 | –
> 100 | > 100 | > 100 | O=C(CNS(=O)(=O)c1ccc2[nH]c(=O)oc2c1)NCCc1ccc2c(c1)OCO2 | –
> 100 | 40 | > 100 | COc1cccc(CNC(=O)NS(=O)(=O)c2ccc3[nH]c(=O)oc3c2)c1 | –
> 100 | > 100 | > 100 | O=C(CNS(=O)(=O)c1ccc2[nH]c(=O)oc2c1)NCc1ccc2c(c1)OCO2 | –
35 | 0.54 | > 100 | Cc1ccc(C)c(NC(=O)CNS(=O)(=O)c2ccc3[nH]c(=O)oc3c2)c1 | IC50 [5]: 21.1 µM; Ki [6]: 3.2 µM; inhibition [7]: Active; IC50 [8]: 3.8 µM; IC50 [9]: 21 µM; IC50 [10]: 27.6 µM

Source: ChEMBL document CHEMBL3112449, “Identification of a selective inhibitor of murine intestinal alkaline phosphatase (ML260) by concurrent ultra-high throughput screening against human and mouse isozymes” (Bioorg Med Chem Lett, 2014)
